Laboratory results reported in patent publication US10314804B2, “Composition containing norbixin for protecting cells of the retinal pigment epithelium” (BIOPHYTIS, priority 2015, dated 2019).
Entries after “also recorded” stand apart in the source; their conditions may differ. Read-outs that look alike come from different tables or passages of the source.

Experiments:
[1] = tested on: primary cultures of adult pig RPE; conditions: cited from earlier work; for photoprotective activity on RPE cells in earlier tests (FR 11 54172): 0.1 μM, 1 μM and 10 μM
[2] = bioavailability of bixin and norbixin, plasma analysis; assay type: in vivo, C57Bl/6 mice; conditions: for Cmax: 50 mg/kg; for AUC(0-t): read-out: AUC 0-24 h; for detection in plasma over time: after bixin ingestion
Experimental: Studies of the bioavailability of bixin and of norbixin were carried out in C57Bl/6 mice. The compounds were administered orally (50 mg/kg). Blood samples were taken after 0.25, 0.5, 1, 3, 6, 8 and 24 h and analyzed by HPLC-DAD (UV 460 nm)-MS/MS.

[3] = tested on: primary cultures of adult pig RPE; test: in vitro photoprotection test: RPE cells with A2E, blue light illumination, cell survival; assay type: cell-based; conditions: 20 μM (extract diluted to provide 20 μM of bixin), FIG. 1
Experimental: The term “blue radiation” is intended to mean the radiation corresponding to the blue band of the visible light spectrum, that is to say having a wavelength of between 435 and 490 nm. This model uses primary cultures of adult pig RPE. The cell survival is quantified by means of a cell viability test. At −48 h, the compounds to be tested (in 5 mM solution in DMSO) are added so as to obtain final concentrations of 1 to 20 μM), then at −19 h, A2E is added (final concentration 30 μM) and the cells are irradiated (time 0 h). 24 h later, the cell survival is measured. The acquisition of the images and also the processing thereof are carried out by means of a fluorescence microscope controlled by the Metamorph software and of a dedicated quantification program. The experiments are carried out on 96-well microplates in quadruplicate and the experiment is reproduced a minimum of four times. The results are expressed in the form of a ratio representing the number of live cells in the wells treated with the molecules to be tested, divided by the number of live cells in the control wells (treated with the dilution medium without A2E).

neuroganglion cells = conditions: Yamauchi et al., 2011; cited from earlier work
rats [4] = test: rat blue light model, intraperitoneal injection; assay type: in vivo; conditions: 100 mg/kg i.p.
Experimental: The “rat blue light” model consists in subjecting the animals to a strong blue light for 6 hours in order to cause ocular damage that is assessed 7 days later by carrying out electroretinograms and then by histological analyses. An antioxidant compound, PBN (phenyl-N-tert-butylnitrone) is used as positive control (Ranchon et al., 2001; Tomita et al., 2005). The compounds of which it is sought to determine the photoprotective activity are injected (intraperitoneally) before and during the illumination phase. Said phase is carried out with Philips blue neon tubes (4.2 mW/cm^2) for 6 hours.
Three series of experiments were carried out with norbixin (100 mg/kg, four injections per rat of a solution at 50 mM in 9‰ NaCl, 4 rats/series) using PBN (phenyl-N-tert-butylnitrone, 50 mg/kg, solution at 20 mg/ml in 9‰ NaCl) as positive control.

[5] = presence of norbixin in the eyes after intraperitoneal injection; assay type: in vivo, double KO mice (ABCA4−/−, RDH8−/−)
Experimental: The presence of norbixin in the eyes was investigated in double KO mice (ABCA4^−/−, RDH8^−/−) 3 hours after intraperitoneal injection of norbixin (10 mg/kg). The eyes of 6 animals were dissected and the samples were extracted with acetonitrile, pooled and then analyzed by HPLC-MS/MS (FIG. 4), which made it possible to specifically detect the presence of norbixin in the RPE and the retina (table 2).
Glucuronidation had also been described in the case of crocetin (Asai et al., 2005).

[6] = tested on: double KO mice (ABCA4−/−, RDH8−/−); test: photoprotective activity by intravitreal injection, blue light exposure; assay type: in vivo
Text: A genetically modified mouse model developed by Maeda et al. (2008) was used to test the photoprotective activity of norbixin. In this mouse model, two genes involved in the visual pigment cycle (ABCA4 and RDH8) are inactivated, which results in an early accumulation of A2E in the eyes (FIG. 5). This animal model is as a result similar to the human pathological condition, with of course its limits, associated with the differences in organization of the eyes between rodents and primates. 7-week-old mice were thus used to carry out unilateral intravitreal injections of norbixin (in order to obtain a final concentration in the vitreous body of 130 μM). After 24 h in the dark, the mice were subjected to an exposure to blue light (4000 lux, 1 h).

[7] = tested on: double KO mice (ABCA4−/−, RDH8−/−); test: photoprotective activity by chronic oral administration (supplemented feed, 3 months); assay type: in vivo
Experimental: A feed containing 0.3 mg/g of pure norbixin was prepared and given to double KO mice (ABCA4^−/−, RDH8^−/−) for a period of 3 months.

rats [8] = conditions: cited from earlier work
[9] = cited from earlier work
[10] = C57Bl/6, mouse, plasma, po, Bixin ingestion (50 mg/kg), analyte as labelled
[11] = C57Bl/6, mouse, po, Bixin ingestion (50 mg/kg), plasma, analyte as labelled

For `COC(=O)/C=C/C(C)=C\C=C\C(C)=C\C=C\C=C(C)\C=C\C=C(C)\C=C\C(=O)O` [bixin, methylhydrogen 6,6′-diapocarotene-6,6′-dioate], the “photoprotective activity on RPE cells in earlier tests (FR 11 54172)” value [1] is given as “do not have any photoprotective activity; also recorded: ineffective”, the Cmax [2, 10] is given as 833 ng/mL and the AUC(0-t) [2, 11] is given as 1670 ng·h/mL. The Tmax ([2]; C57Bl/6, mouse, po, Bixin ingestion (50 mg/kg), plasma, analyte as labelled, read-out: Tmax) was 30 min, the “detection in plasma over time” value ([2]; oral 50 mg/kg) was “no longer detected after 8 hours” and the “conversion of ingested compound” value ([2]; oral 50 mg/kg) was “rapidly converted into norbixin”. For the same compound, the “protection of RPE cells against phototoxicity induced in the presence of A2E (cell survival)” value [3] was “effectively protect”.

In the case of `CC(/C=C/C=C(\C)C(=O)O)=C\C=C\C=C(C)\C=C\C=C(/C)C(=O)O` [crocetin, 8,8′-diapocarotene-8,8′-dioate], the “protection against oxidative stress” value (neuroganglion cells) is listed as “protects”.

In the case of `O=c1oc2c(O)c(O)cc3c(=O)oc4c(O)c(O)cc1c4c23` [ellagic acid], the “photoprotective effect on RPE cells in earlier tests (FR 11 54172)” value ([1]; 10 μM and 20 μM) is given as “advantageous photoprotective effect”.

For `CC(=C/C=C/C(C)=C/C=C/C=C(C)/C=C/C=C(C)/C=C/C(=O)O)/C=C/C(=O)O` [norbixin], the “photoprotective activity on RPE cells in earlier tests (FR 11 54172)” value [1] is listed as “do not have any photoprotective activity”, the “electroretinograms (A-waves and B-waves)” value (rats [4]; four injections, blue light 6 hours, 7 days later, FIG. 8B) is listed as “significant efficacity” and the “survival of the photoreceptors, histology” value (rats [4]; FIGS. 9A and 9B) is listed as “confirm the photoprotective action”. The “Norbixin (ng/organ), Crystalline” value ([5]; 3 hours after i.p. 10 mg/kg, Crystalline) was “<LOQ”, the “Norbixin (ng/organ), RPE” value ([5]; 3 hours after i.p. 10 mg/kg, RPE) was 5.15 ng/organ and the “Norbixin (ng/organ), Retina” value ([5]; 3 hours after i.p. 10 mg/kg, Retina) was 2.40 ng/organ. The “Norbixin (ng/organ), Total” value ([5]; 3 hours after i.p. 10 mg/kg, Total) was 7.55 ng/organ, the “Norbixin (ng/organ), Vitreous humor” value ([5]; 3 hours after i.p. 10 mg/kg, Vitreous humor) was “<LOQ” and the “conjugated forms in plasma and eyes” value ([5]; HPLC-MS/MS, FIG. 4) was “gives two monoglucuronides”. For the same compound, the “elimination from the eye after intravitreal injection” value ([6]; 24 h after the intravitreal injection) was “virtually eliminated”, the “electroretinogram (A- and B-waves)” value ([6]; intravitreal, 130 μM in vitreous body, blue light 4000 lux 1 h, 7 days later, FIG. 6) was “protective effect” and the “thickness of the layer of external nuclei (photoreceptors), histology” value ([6]; intravitreal, 130 μM, FIG. 7) was “protective effect”. The “accumulation of norbixin in the eyes” value ([7]; chronic treatment, feed, 3 months) was “no significant accumulation”, the “A2E accumulation in the eyes” value ([7]; feed 0.3 mg/g, 3 months, FIG. 10) was “reduction in A2E accumulation” and the “amplitude of the electroretinogram (ERG)” value ([7]; feed 0.3 mg/g, 3 months, FIG. 11) was “positive effect”. The “daily intake that significantly slows down the retinal degeneration” value ([7]; mice, oral administration) was 48 mg/kg of body weight, the “intake up to which no toxicity was observed” value (rats [8]; rat, in vivo) was 20 mg/kg/day and the “no observable adverse effect level (NOAEL)” value (rats [8]; rats) was 69 mg/kg/day of body weight. For the same compound, the Tmax ([2]; Bixin ingestion (50 mg/kg), plasma, analyte as labelled) was “Norbixin 0.5 h”, the Cmax [2, 10] was 649 ng/mL and the Cmax ([2]; C57Bl/6, mouse, plasma, po, Norbixin ingestion (50 mg/kg)) was 12400 ng/mL. It also gave a bioavailability ([2]; C57Bl/6, mouse, plasma, intraperitoneal injection (5 mg/kg) versus oral administration (50 mg/kg), FIG. 3b) of 55%, an AUC(0-t) [2, 11] of 1340 ng·h/mL and an AUC ([2]; C57Bl/6, mouse, po, Norbixin ingestion (50 mg/kg), plasma) of 41600 ng·h/mL. For the same compound, the Tmax ([2]; C57Bl/6, mouse, po, Norbixin ingestion (50 mg/kg), plasma, read-out: Tmax) was 30 min, the “detection in plasma over time” value ([2]; oral 50 mg/kg) was “no longer detected after 8 hours” and the “protection of RPE cells against phototoxicity induced in the presence of A2E (cell survival)” value [3] was “effectively protect”. The “acceptable daily intake (ADI)” value ([9]; JECFA/67/FC) was “at most 0.6 mg/kg/day of body weight” and the “daily intake with no observable adverse effect level in humans, equivalent” value ([9]; equivalent of rat NOAEL) was 11 mg/kg.
